The test system of assay [1] is Wild buckwheat. In words: Ex12 PRE 2,4-DC + dimethenamid-P, % control 28 DAT, Colby. The class given is in vivo, Polygonum convolvulus. As to the method: The tested weeds include: wild buckwheat (Polygonum convolvulus, POLCO), velvetleaf (Abutilon theophrasti, ABUTH), cheat (Bromus secalinus, BROSE), wild oat (Avena fatua, AVEFA), radish (Raphanus sativus, RAPSN), corn poppy (Papaver rhoeas, PAPRH), yellow foxtail (Setaria pumila, SETLU), Italian ryegrass (Lolium perenne ssp. multiflorum, LOLMU). The tested crop was Oilseed rape.
This greenhouse study was conducted to assess the preemergence (PRE) weed control and oilseed rape tolerance with 2,4 DC (CS 36.7%) and dimethenamid-P (Outlook®, 63.9%) tank-mix combinations.
Metazachlor (Butisan, 43.1%) plus dimethenamid-P applied as tank mix at 500 g each was applied as commercial standard. Treatments were replicated 3 times and flats were watered after planting but before the treatment and then lightly watered after treatment application. Thereafter flats were watered and fertilized routinely.

The subject of assay [2] is jimsonweed. In words: Ex15 PRE 2,4-DC + S-metolachlor, % control 28 DAT, Colby. The class given is in vivo, Datura stramonium. The source says:
(§1) The weeds tested in this study were redroot pigweed (Amaranthus retroflexus, AMARE), Jimsonweed (Datura stramonium, DATST), black nightshade (Solanum nigrum, SOLNI), large crabgrass (Digitaria sanguinalis, DIGSA), Pennsylvania smartweed (Polygonum pensylvanicum, POLPY), horseweed (Conyza canadensis, ERICA), wild buckwheat (Polygonum convolvulus, POLCO). The crop tested was Corn (var. Viking).
(§2) To determine PRE efficacy and corn injury, five rates of each 2,4 DC (36.7% CS) and S-metolachlor (Dual II Magnum®, 82.4%) were applied either alone or as tank-mix. 2,4 DC was applied at 0, 125, 170, 210, or 250 g ai/ha and S-metolachlor was applied at 0, 267, 534, 801, or 1070 g ai/ha. Additional treatments included application of premix of pyroxasulfone plus fluthiacet-methyl (Anthem™ 23.3%) at 169.9 g ai/ha and tank-mix of mesotrione (Callisto®, 40%) at 123 g plus S-metolachlor at 1252 g. Treatments were applied just after the planting of large crabgrass, Jimsonweed, black nightshade, redroot pigweed, Pennsylvania smartweed, horseweed, wild buckwheat, and corn.
(§3) Flats were watered and fertilized routinely after treatment application. Each treatment was replicated three times. […] Corn injury was rated for bleaching and stunting.

In assay [3] the test system is Wild buckwheat. Described as above. It counts as in vivo, Polygonum convolvulus.
Description: as §1, §2, §3

For assay [4], the system named is yellow nutsedge (YN). In words: PRE greenhouse, 2,4-DC + sulfentrazone, % control. Particulars: 28 DAT, g ai/ha by row: r8-16 2,4-DC 50/100/200 (3 rows each) + sulfentrazone 105/210/315 (cycling). It counts as in vivo, Cyperus esculentus. As to the method: Test compositions containing 2,4-DC Example 1B and sulfentrazone (Spartan® 4F, 39.6% active ingredient, FMC Corp.) and mixtures of 2-(2,4-dichlorophenyl)methyl-4,4-dimethyl-3-isoxazolidinone and sulfentrazone, were diluted with water to provide the appropriate test rate concentration.
The test weeds were Pennsylvania smartweed (PS) (Polygonum pennsylvanicum), Palmer amaranth (PA) (Amaranthus palmeri), velvetleaf (VL) (Abutilon theophrasti), green foxtail (GF) (Setaria viridis), morningglory (MG) (Ipomoea spp.), yellow nutsedge (YN) (Cyperus esculentus), purple nutsedge (PN) (Cyperus rotundus), and benghal dayflower (BD) (Commelina benghalensis). Crops included in the evaluation were corn, wheat, and cowpea.
For pre-emergence testing, four disposable fiber flats (6″ by 10″) for each rate of application of each herbicide solution were filled with top soil, to which seeds of each species were planted in furrows made by a template pressed on the top of the soil. The furrows with crop/weed seeds were covered with soil and were watered well before application of the test compounds. Flats designated for treatment were placed in a spray chamber having a static platform and a movable sprayer and height of the spray nozzle was 10.5 inches above the soil level. Once the sprayer was calibrated using water for spray volume of 30 gallons per acre, flats were sprayed with sprayer at a speed to receive a coverage equivalent of 30 gallons per acre.
The application rates are those shown in Table 3, 3A, an d 3B below for the individual herbicidal solutions and the herbicide compositions of the present invention. The pre-emergence flats were immediately placed in the greenhouse and watered lightly after treatment for herbicide activation. Thereafter they were regularly watered and feterilized for the duration of the test. The control of weeds was evaluated in each experimental test at 28 days after treatment (DAT), 14 DAT for crops. The results, shown as an average of the replications, were compared with results observed in untreated control flats in the same tests. Percent weed control was determined by a method similar to the 0 to 100 rating system disclosed in “Research Methods in Weed Science,” 2nd ed., B. Truelove, Ed.; Southern Weed Science Society; Auburn University, Auburn, Ala., 1977.

The test system of assay [5] is weeds; canola, and wheat. In words: Ex32 PRE greenhouse. It counts as in vivo. Particulars: rate in the words. The source says: Treatments were applied at the time of planting to Italian ryegrass, green foxtail, littleseed canarygrass, wild oat, quackgrass, dandelion, common chickweed, white clover, yellow nutsedge, redroot pigweed, field bindweed, canola, and wheat. […] Flats were watered and fertilized routinely after treatment application.

Assay [6] relates to Common lambsquarters. In words: Ex13 PRE 2,4-DC + diflufenican, % control 28 DAT, Colby. The class given is in vivo, Chenopodium album. The source says: Pyroxasulfone (KIH-485, 85%) at 74.3 g ai/ha, pendimethalin (Prowl 3.3EC, 37.4%) at 1200 g ai/ha, or a premix of chlorsulfuron plus metsulfuron-methyl (Report Extra, 75%) at 15.8 g ai/ha were applied as commercial standards. […] Treatments were replicated 3 times and flats were watered after planting before the treatment and lightly watered after treatment application. Thereafter flats were watered and fertilized routinely.

Molecules are shown by their SMILES.

Consider `CC1(C)CON(Cc2ccc(Cl)cc2Cl)C1=O` [2,4-DC, 2-(2,4-dichlorophenyl)methyl-4,4-dimethyl-3-isoxazolidinone], for which the X was 8% in assay [1] (2,4-DC alone 125 g ai/ha); 25% in assay [1] (2,4-DC alone 170 g ai/ha); 28% in assay [1] (2,4-DC alone 210 g ai/ha); 38% in assay [1] (2,4-DC alone 250 g ai/ha); 37% in assay [2] (2,4-DC alone 125 g ai/ha); 40% in assay [2] (2,4-DC alone 170 g ai/ha). The X is reported as 48% in assay [2] (2,4-DC alone 210 g ai/ha); 53% in assay [2] (2,4-DC alone 250 g ai/ha); 15% in assay [3] (2,4-DC alone 125 g ai/ha); 43% in assay [3] (2,4-DC alone 170 g ai/ha); 30% in assay [3] (2,4-DC alone 210 g ai/ha); 32% in assay [3] (2,4-DC alone 250 g ai/ha). The X in assay [6] (2,4-DC alone 125 g ai/ha) is listed as 15%; in assay [6] (2,4-DC alone 170 g ai/ha), 26%; in assay [6] (2,4-DC alone 210 g ai/ha), 58%; in assay [6] (2,4-DC alone 250 g ai/ha) it was 60%. Further, the “% Control YN” value in assay [4] (r17-19 2,4-DC 50/100/200, r20-22 sulfentrazone 105/210/315, 50 g ai/ha) is recorded as 10%; in assay [4] (r17-19 2,4-DC 50/100/200, r20-22 sulfentrazone 105/210/315, 100 g ai/ha), 12%; in assay [4] (r17-19 2,4-DC 50/100/200, r20-22 sulfentrazone 105/210/315, 200 g ai/ha), 13%. Further, in assay [5], the “weed control / crop safety in words” value is “alone controlled Italian ryegrass and wild oat at 400 g; common chickweed was controlled at all rates; green foxtail was controlled at ≥100 g; littleseed canarygrass and redroot pigweed were controlled at 200 g”.

For the origin of these results see US12616203B2, “Use of 3-isoxazolidinones compounds as selective herbicides” (FMC Corporation, priority 2014, dated 2026).
